Data published in patent US20230181535A1, “UBIQUITIN-LIGASE INHIBITORS FOR THE TREATMENT OF CANCER” (FUNDACIÓN PROFESOR NOVOA SANTOS, priority 2020, published 2023).

Key:
[1] = test system: ubiquitination in 293T cells; test: Ubiquitination assay in 293T cells transfected with v-Src and HA-ubiquitin (Hakai not overexpressed); format: cell-based; settings: vs DMSO
Protocol: Six hours after transfection cells were treated with indicated concentrations of Hakin-1, Hakin-5 or the rest of the compounds tested for 36 h. Whole cell extracts were obtained in lysis buffer (20 mM Tris-HCl pH 7.5, 150 mM NaCl and 1% Triton X-100) containing 10 μg/ml leupeptin, 10 μg/ml aprotinin and 1 mM phenylmethanesulphonyl fluoride (PMSF), supplemented with 10 mM N-ethylmaleimide. Cells were harvested and subjected to western blotting using anti-HA antibody to detect ubiquitination.

[2] = test system: HT-29 colon tumour cell line; test: MTT cell viability assay, HT-29; format: cell-based, human; settings: increasing range of concentrations
Protocol: (§1) For cytotoxicity assays, 1×10^4 cells were seeded per well into a 96-well plate. After 24 h cells were treated with the indicated inhibitors for 72 h and a MTT colorimetric cell viability assay was performed following manufacturer's instructions (Sigma Aldrich, St Louis, Mo.). Absorbance was measured at 570 and 630 nm using a Multiskan Plus Reader (Nanoquant Infinite M200 Tecan Trading AG, Switzerland). Dose-response curves were designed with Graph Pad Prism Software and the half-maximal inhibitory concentration (IC50) values were calculated. Represented data are the mean±SEM of at least three independent experiments with six replicates per condition.

[3] = test system: Hakai-MDCK cell lines (clone 4 and clone 11); test: MTT cell viability assay, Hakai-MDCK; format: cell-based; settings: Hakai-MDCK clone 4 and clone 11, compared with MDCK
Protocol: as §1

[4] = test system: HT-29 cells; test: Phase-contrast cell phenotype, HT-29; format: cell-based, human
Protocol: (§2) MDCK, HEK293T, HepG2, MCF7 and ACHN cells were cultured in Dulbecco's Modified Eagles Medium (DMEM). MDCK stably expressing Hakai cells (Hakai-MDCK) were previously reported and were growth in DMEM with G418 (800 μg/ml). […] LoVo and PC-3 cells were cultured in F-12K Medium (Kaighn's Modification of Ham's F-12 Medium) and HT-29 and HCT116 cells in McCoy's 5a Medium Modified. 5637 cells were cultured in RPMI medium. All culture media were supplemented with 1% penicillin/streptomycin and 10% of heat-inactivated fetal bovine serum (FBS) at 37° C. in a humidified incubator with 5% CO2. Cells were monthly tested for mycoplasma contamination and used only for 1-3 months after defrosted. LoVo and HT29 cells were authenticated with the StemElite ID system (Promega). For phase-contrast images, culture cells were photographed with a Nikon Eclipse-TI microscope.

[5] = test system: LoVo cells; test: Phase-contrast cell phenotype, LoVo; format: cell-based
Protocol: as §2

[6] = test system: epithelial MDCK cells; test: Phase-contrast cell phenotype, MDCK; format: cell-based
Protocol: as §2

[7] = test system: mesenchymal Hakai-MDCK cells; test: E-cadherin protein levels in Hakai-MDCK cells; format: cell-based; settings: Hakai-MDCK cells (no basal E-cadherin)
Protocol: (§3) For western blot analysis, cells were treated with the indicated inhibitors for 48 h and the whole cell extracts were obtained as described previously. Twenty micrograms of lysates were resolved on a 10% polyacrilamide SDS-PAGE followed by western blot analysis performed as previously described. For immunofluorescence assays cells were grown for 24 h on glass coverslips and treated with the indicated inhibitors for 48 h. Cells were fixed with 4% PFA for 15 min, permeabilized with 0.5% […] and incubated with E-cadherin antibody for 2 h. Coverslips were incubated with fluorescein-tagged secondary antibody (Dakopatts, Sweden) for […]. Finally coverslips were mounted with ProLong Gold antifade reagent (LifeTech, UK) and images were taken in epifluorescence microscope (Olympus) using 40× objective. […] One set of SIM Synthetic Focus images were taken in the DAPI channel for Hoechst 33342 staining, and another set of images were taken in the FITC channel for anti-E-cadherin-AlexaFluor488 labeling and analysed by Structured Illumination Microscopy (SIM™) platform to image the cells and Vala's CyteSeer® Cell-Cell Junction Algorithm to quantify the degree of expression and intracellular location of E-cadherin Vala's CyteSeer® Software can also measure relative DNA content by analyzing Total Integrated Intensity (TII) of the Nuclear Image (Ni) on the Nuclear Mask (Nm). […]

[8] = test system: LoVo cells; test: Immunofluorescence of E-cadherin, LoVo; format: cell-based; settings: 48 h, vs DMSO
Protocol: as §3

[9] = test system: HT29 cells; test: BrdU proliferation assay, HT29; format: cell-based, human; settings: 48 h
Protocol: (§4) For BrdU assays, 1×10^4 of indicated cells were plated per well into a 96-well plate. After 24 h, cells were treated with the indicated inhibitors for 48 h. Three independent experiments were plated with six replicates per each condition. Cells were treated with […] BrdU for 2 h. BrdU incorporation into newly synthesized DNA was measured using a cell proliferation colorimetric immunoassay kit according to the manufacturer's instructions (Roche, Switzerland). Results are expressed as mean±S.D. Results are represented as percentage of positive cells (mean±S.D) of three independent experiments.

[10] = test system: Hakai-MDCK cells; test: BrdU proliferation assay, Hakai-MDCK; format: cell-based; settings: 48 h
Protocol: as §4

[11] = test system: liver cancer HepG2 cells; test: BrdU proliferation assay, HepG2; format: cell-based, human; settings: 48 h
Protocol: as §4

[12] = test system: renal cancer ACHN cells; test: BrdU proliferation assay, ACHN; format: cell-based, human; settings: 48 h
Protocol: as §4

[13] = test system: tumour culture cells; test: In vitro antitumor effect (summary of cell assays); format: cell-based
[14] = test system: HCT116 colon cancer cells; test: MTT cell viability assay, HCT116; format: cell-based, human; settings: concentrations tested in the previous assays
Protocol: as §1

SMILES	ubiquitination when Hakai was not overexpressed [1]	cytotoxicity (cell viability, MTT) [2]	sensitivity to treatment (cell viability, MTT) [3]	cell phenotype by phase contrast [4]	cell phenotype by phase contrast [5]	cell phenotype by phase contrast [6]	E-cadherin protein levels [7]	E-cadherin levels at cell-cell contacts (immunofluorescence) [8]	cell proliferation (BrdU) [9]	cell proliferation (BrdU) [10]	cell proliferation (BrdU) [11]	cell proliferation (BrdU) [12]	concentration at which the in vitro antitumor effect was observed [13] [µM]	cytotoxic effect (cell viability, MTT) [14]
O=C(O)c1ccc(-n2nnnc2SCC(=O)c2ccc([N+](=O)[O-])cc2)cc1 [Hakin-1, 4-(5-[2-(4-nitrophenyl)-2-oxoethyl]thiol-1H-tetrazol-1-yl)benzoic acid]	did not affect ubiquitination	important inhibitory response	more sensitive	modestly induce an epithelial phenotype	modestly induce an epithelial phenotype	no effect was observed	no recovery was detected	significant increase E-cadherin levels at cell-cell contacts	reduced cell proliferation	suppress proliferation	inhibited cell proliferation	inhibited cell proliferation	100 to 200	–
O=C(O)c1ccc(-n2nnnc2SCC(O)c2ccc([N+](=O)[O-])cc2)cc1 (centres unmarked) [MKH1]	–	–	–	–	–	–	–	–	–	–	–	–	–	no cytotoxic effect
